The source of these data is patent publication US20260169011A1, “METHODS AND COMPOSITIONS FOR PROVIDING CUSTOMIZED NUTRITIONAL SUPPLEMENTS” (Vibrant Holdings LLC, priority 2023, published 2026).

Like-named read-outs stand apart in the source and are kept apart here.

Series [1] can be described thus: NutriPro test: serum, RBC and WBC nutrient values before and after ATB / customized blend. Type of series: in vivo, human. An excerpt:
The method for providing a nutritional supplement for a subject as disclosed herein is based on a comprehensive panel that assesses intracellular and extracellular levels of at least or up to 41 nutrients. […] Blood analysis using the method disclosed herein tests for nutrient levels in serum, red blood cells (RBCs), and white blood cells (WBCs). Additional genetic testing can assess patients' predispositions toward nutrient deficiencies. Based on the blood and genetic analysis results, a subsequent supplementation diet comprising supplements and food sources can be designed and implemented. The subject can be a human subject.
In some embodiments, the detection method is mass spectrometry.
The ‘NutriPro’ test is used to assess serum (extracellular), RBC, and WBC (intracellular) nutrient values along with genetic testing for any predispositions with could be affecting nutrient values in the body. If required, additional tests such as the gut zoomer, cardiovascular health, thyroid test, kidney function test, liver function test, etc, are carried out. FIG. 1 provides a schematic diagram of the process of the NutriPro test from the individual subject to the creation of customized nutritional blends.
The ATB is given to the individual for nutritional supplementation, and blood testing for nutrients in serum, RBC, and WBC is carried out after 3 or 6 months.
The assessed change is called the VAF.
After testing, the individual takes the ATB or the customized blend for the amount of time indicated.

Series [2] can be described thus: Zone Approach: nutrient zone (Zone 1-5), target nutrient zone and follow-up zone. The class given is in vivo, human. The settings on record: Zone Approach, CB followed for three months; for change of nutrient level at follow-up testing / nutrient zone at follow-up testing: Example 5: person. An excerpt:
The second exemplary approach includes determining nutrient zones, and thus is referred to as the “Zone Approach.” According to some embodiments, the nutrient reference range for individuals can be divided into a number of zones, each indicating a nutrient wellness level. […] In some embodiments, for a given nutrient, each zone is associated with a specific multiplication factor, which can be used to determine the appropriate dosage for the CB. A few exemplary methods following this Zone Approach are further described hereinafter. […] Based on the assessment results, the current zone for each nutrient is determined at step 420a. In some embodiments, the genetic predispositions and cellular levels may influence the determination of the overall zone for a nutrient. […] This adjustment accounts for the impact of genetic polymorphisms and suboptimal cellular levels, each reducing the nutrient's zone by one or more zones. Therefore, this approach takes one or more of cellular and serum nutrient levels, along with their nutrient genetic profile into consideration to determine a given nutrient's overall zone. In the next, the Target Nutrient Zone (TNZ) to which the individual's each nutrient level is to be optimized is determined at step 430. […] In some embodiments, the determined TNZ is used to determine the multiplication factor used to adjust the starting dosage at step 440a, resulting in the CB dosage for each nutrient. In various embodiments, the multiplication factor is a fixed constant value, previously determined for a nutrient when moving from a first zone to a second zone. […] At step 450a, the CB with the determined nutrient dosages is administered to the individual for a predefined period. In some embodiments, a follow-up test is periodically conducted at step 460, to monitor the progress towards the target nutrient levels during the predefined period, for example, to check whether a target zone is reached or not for a given nutrient. In some embodiments, based on the results from the follow-up tests, it is further determined whether the dosage of the CB for a nutrient requires adjustment. If the adjustment is necessary, appropriate modification is made to the CB, for example, by increasing the TNZ to increase the nutrient levels. The modified CB is administered to the individual, and a reassessment is conducted again. In some embodiments, the personalized dosage of the nutritional supplement in the CB is modified as above after the at least one, two, three, four, five, six, seven, eight, nine, ten, or more repeats.

The conditions of series [3]: in vivo.
Excerpt: (§1) In some embodiments, the detection method assesses nutrients both in extracellular plasma and intracellular in RBC and WBC. In some embodiments, the detection method is mass spectroscopy-based. The extracellular and intracellular nutrient levels provide a comprehensive analysis of a subject's nutrient status, reflecting not only the intake levels but also the absorption levels into the cells.
(§2) In some aspects, the extracellular nutrient levels provide a snapshot of the status of nutrient baseline levels at a given time. It is a reflection of a person's diet over a narrow period of time. In contrast, the intracellular levels of nutrients provide information on the absorbed levels of nutrients, thus accounting for factors such as aging, lifestyle, chronic illness, medication, etc. that could interfere with absorption and can change the functional nutritional levels.
(§3) In some embodiments, the detection method is mass spectrometry. In some embodiments, the detection method is Liquid chromatography-mass spectrometry (LC-MS), Gas chromatography-mass spectrometry (GC-MS), or Inductively coupled plasma-mass-spectrometry (ICP-MS). In some embodiments, the detection method is Liquid chromatography-mass spectrometry (LC-MS). In some embodiments, the detection method is Gas chromatography-mass spectrometry (GC-MS). In some embodiments, the detection method is Inductively coupled plasma-mass-spectrometry (ICP-MS).
(§4) In some embodiments, the method provided herein evaluates nutrient levels, both in extracellular serum and inside (intracellular) red blood cells (RBC) and/or white blood cells (WBC). The extracellular nutrient levels provide a snapshot of the status of nutrient baseline levels at a given time. These extracellular nutrient levels are a reflection of a person's diet over a narrow period of time. In contrast, RBCs have a normal lifespan of 120 days, and thus intracellular assessments for nutrients in RBCs can provide information on nutrients over longer periods. Additionally, the intracellular levels of nutrients provide information on the absorbed levels of nutrients, thus accounting for factors such as, but not limited to, aging, lifestyle, chronic illness, and medication, that can interfere with absorption and can change the functional nutritional levels. Moreover, actual nutrient utilization occurs inside the cell owing to cellular metabolic processes. At times, nutrients could be present in serum, but poor cellular uptake may result in cells being devoid of these nutrients, thus giving rise to nutrient deficiencies owing to affected cellular activities. […] As a result, it is important to assess nutrients intracellularly in addition to extracellularly. Thus, the intracellular assessment provides information on cellular uptake and utilization of nutrients at the most fundamental level, enabling understanding of the root cause of nutrient deficiencies.
(§5) The subject individual fills out the health questionnaire (PHQ) which helps establishes factors such as symptoms, complications, comorbidities, and ongoing medications. The subject's blood is drawn and the extracellular serum and intracellular blood cells are tested for nutritional deficiencies via mass spectroscopy (e.g., Liquid chromatography-mass spectrometry (LC-MS), Gas chromatography-mass spectrometry (GC-MS), or Inductively coupled plasma-mass-spectrometry (ICP-MS)).
Series [4] in a line: clinical. The note with it: female, human, in vivo.
Excerpt: as §1, §2, §3, §4, §5
The conditions of series [5]: cited from earlier work.
The nature of series [6]: Extracellular (serum) nutrient levels by mass spectrometry (LC-MS, GC-MS, ICP-MS). The settings on record: Level: Serum; person; before customized blend.
Excerpt: as §1, §2, §3, §4, §5
A short description of series [7]: Vibrant Absorption Factor (VAF): difference of post- and pre-supplementation nutrient values divided by ATB dosage. The note with it: person one; serum.
Excerpt: (§6) Improvement in nutrition can be determined by comparing the nutrient values in serum, RBC, and WBCs post-nutritional supplementation to the nutrient values in serum, RBC, and WBCs pre-nutritional supplementation. Based on the improvement, the change in the nutrient levels can be attributed to the per milligram dosage of the supplemented nutrients. The assessed nutritional change is the “Vibrant Absorption factor (VAF (see Equation (1) below). The VAF can be used to determine the subject's utilization of the supplemented nutrients, as determined by the difference in extracellular and intracellular nutrient values before and after supplementation. Based on the subject's utility or absorption of the nutrients, the dosage amount of the nutrient needed to be supplemented or increased to effect change of the subject's nutrient values into the optimum nutrient zone can be assessed. In various embodiments, the VAF is determined by administering a pre-determined formulation, referred to herein as the Absorption Testing Blend.
(§7) Next, the ATB is administered to the individual for a predefined period at step 320a, after which nutrient levels and the genetic nutrient profile are re-evaluated, to obtain the post-supplementation biomarker values at step 330.
(§8) This includes determining the VAF based on the difference between post- and pre-supplementation biomarker values, which is divided by the ATB dosage.
(§9) The assessed change is called the VAF. The VAF is used to understand how the individual's body is utilizing these nutrients, depending on the difference in extracellular and intracellular nutrient values before and after supplementation. Based on the body's utility or absorption of the nutrients, the amount of nutrients needed to be supplemented to alter the individual's nutrient values into the optimum nutrient zone is understood. The VAF calculations help in determining the appropriate dosages of nutrients required in the ‘customized blend.’
The conditions of series [8]: human, in vivo.
Excerpt: as §6, §7, §8, §9

Consider `Cc1ncc(COP(=O)(O)O)c(C=O)c1O` [vitamin B6, Pyridoxal 5-Phosphate], for which, in series [1] (in vivo), the “Actual Nutrient Value (ANV)” value turned out to be 130 ng/mL and the “Follow-up Nutrient Level” value is given as 401 ng/mL. For the same molecule, in series [2], the “change of nutrient level at follow-up testing” value is “moderately increased” and the “nutrient zone at follow-up testing” value was “Zone 2”. Moreover, in series [3], the “Actual Nutrient Value (ANV)” value is 0.5 ng/mL and the “Follow-up Nutrient Level” value is recorded as 0.9 ng/mL.

Take `NC(=O)CC[C@H](N)C(=O)O` [L-glutamine, L-Glutamine]: in series [1] (male, human, in vivo), the “Follow-up Biomarker level” value is listed as 697 nmol/mL. Also, in series [1] (male, human, in vivo), the Post-test biomarker level was determined as 312 nmol/mL. In addition, the Pre-test biomarker level in series [1] (person one, serum, before ATB) came to 295.3 nmol/mL. In addition, the “Follow-up Nutrient Level” value in series [1] (person three, serum, after customized blend) came to 677 nmol/mL. Besides, the “Actual Nutrient Value (ANV)” value in series [1] (person three, serum, before customized blend) came to 290 nmol/mL; in series [6] it was 302 nmol/mL. For the same molecule, the “change of nutrient level at follow-up testing” value in series [2] is listed as “marginal increase”. Also, the “nutrient zone at follow-up testing” value in series [2] is recorded as “Zone 2”. Moreover, the concentration at 3 months in series [4] amounted to 371 µM. The UTL in series [5] (Table 18, person one) is on record as 14000 mg/day; in series [5] (Table 20, person three), 14000 mg/day; in series [5] (upper tolerable limit) it was 14000 mg/day. The VAF in series [7] turned out to be 3.34.

In the case of `CCCCC/C=C\C/C=C\CCCCCCCC(=O)O` [LA, linoleic acid], the “nutrient levels reaching their TNZ at follow-up testing” value in series [2] (Example 4: person three bodybuilder, named nutrients are the exceptions that did not reach the TNZ) is given as “supposed to reach the higher Zone 5”.

Consider `[Se]` [Selenium], for which, in series [1] (female, human, in vivo), the “Follow-up Biomarker level” value worked out at 267 ng/mL, the Post-test biomarker level was determined as 122 ng/mL and the Pre-test biomarker level is 105 ng/mL. In series [1] (male, human, in vivo), the “Actual Nutrient Value (ANV)” value is 190 ng/mL, the “Follow-up Biomarker level” value is given as 259 ng/mL, the “Follow-up Nutrient Level” value came to 267 ng/mL and the Post-test biomarker level was 167 ng/mL. This molecule also came in with a Pre-test biomarker level in series [1] (male, human, in vivo) of 140 ng/mL. The molecule also registered a VAF in series [8] (female) of 2.267. Also, in series [8] (male), the VAF worked out at 3.6.
